This is an account of results in ChEMBL document CHEMBL5303573, “Mapping human microbiome drug metabolism by gut bacteria and their genes” (Nature, 2019).

Structures are written as SMILES.

One data set in a line: The drug is tested on Bifidobacterium breve strain: DSM20213 for biotransformation. The drug concentrations were measured before and after a 12-h incubation by liquid-chromatography-coupled mass spectrometry (LC–MS). Particulars: 2 µM.
Regarding `Nc1nnc(-c2cccc(Cl)c2Cl)c(N)n1` [LAMOTRIGINE], the “Bacterial Biotransformation” value is “Compound NOT metabolized”.
For `COc1ccc(Cc2nccc3cc(OC)c(OC)cc23)cc1OC` [PAPAVERINE], the “Bacterial Biotransformation” value is “Compound NOT metabolized”.
Still for that read-out and setting: the value for `CN1[C@@H]2CC[C@H]1C[C@@H](OC(=O)C(CO)c1ccccc1)C2` (stereo partly drawn) [ATROPINE] was “Compound NOT metabolized”; that for `CN(C)CC(c1ccc(O)cc1)C1(O)CCCCC1.O=C(O)CCC(=O)O` (stereo not drawn) [DESVENLAFAXINE SUCCINATE] was “Compound NOT metabolized”.

The nature of a further data set: The drug is tested on Bacteroides caccae strain: ATCC43185 for biotransformation. The drug concentrations were measured before and after a 12-h incubation by liquid-chromatography-coupled mass spectrometry (LC–MS). Particulars: 2 µM.
In the case of `Nc1nnc(-c2cccc(Cl)c2Cl)c(N)n1` [LAMOTRIGINE], the “Bacterial Biotransformation” value was “Compound NOT metabolized”.
Still for that read-out and setting: the entry for `COc1ccc(Cc2nccc3cc(OC)c(OC)cc23)cc1OC` [PAPAVERINE] is “Compound NOT metabolized”.
Still for that read-out and setting: the value for `CN1[C@@H]2CC[C@H]1C[C@@H](OC(=O)C(CO)c1ccccc1)C2` (stereo partly drawn) [ATROPINE] was “Compound NOT metabolized”.
Still for that read-out and setting: the value for `CN(C)CC(c1ccc(O)cc1)C1(O)CCCCC1.O=C(O)CCC(=O)O` (stereo not drawn) [DESVENLAFAXINE SUCCINATE] was “Compound NOT metabolized”.

The next data set is described as follows: The drug is tested on Bacteroides vulgatus strain: ATCC8482 for biotransformation. The drug concentrations were measured before and after a 12-h incubation by liquid-chromatography-coupled mass spectrometry (LC–MS). Particulars: phocaeicola vulgatus, 2 µM.
For `CN1[C@@H]2CC[C@H]1C[C@@H](OC(=O)C(CO)c1ccccc1)C2` (stereo partly drawn) [ATROPINE], the “Bacterial Biotransformation” value was “Compound NOT metabolized”.
On the same count and under the same terms, the value for `CN(C)CC(c1ccc(O)cc1)C1(O)CCCCC1.O=C(O)CCC(=O)O` (stereo not drawn) [DESVENLAFAXINE SUCCINATE] was “Compound NOT metabolized”.

Another data set can be described thus: The drug is tested on Odoribacter splanchnicus strain: fecal isolate for biotransformation. The drug concentrations were measured before and after a 12-h incubation by liquid-chromatography-coupled mass spectrometry (LC–MS). Particulars: 2 µM.
Take `CN1[C@@H]2CC[C@H]1C[C@@H](OC(=O)C(CO)c1ccccc1)C2` (stereo partly drawn) [ATROPINE]: the “Bacterial Biotransformation” value is recorded as “Compound NOT metabolized”.
In the case of `CN(C)CC(c1ccc(O)cc1)C1(O)CCCCC1.O=C(O)CCC(=O)O` (stereo not drawn) [DESVENLAFAXINE SUCCINATE], the “Bacterial Biotransformation” value is recorded as “Compound NOT metabolized”.

A further data set is described as follows: The drug is tested on Blautia hansenii strain: DSM20583 for biotransformation. The drug concentrations were measured before and after a 12-h incubation by liquid-chromatography-coupled mass spectrometry (LC–MS). Particulars: 2 µM.
Consider `CN1[C@@H]2CC[C@H]1C[C@@H](OC(=O)C(CO)c1ccccc1)C2` (stereo partly drawn) [ATROPINE], for which the “Bacterial Biotransformation” value is “Compound NOT metabolized”.

A further data set is described as follows: The drug is tested on Clostridium sp. strain: fecal isolate for biotransformation. The drug concentrations were measured before and after a 12-h incubation by liquid-chromatography-coupled mass spectrometry (LC–MS). Particulars: 2 µM.
`Nc1nnc(-c2cccc(Cl)c2Cl)c(N)n1` [LAMOTRIGINE]: the “Bacterial Biotransformation” value is recorded as “Compound NOT metabolized”.
Take `COc1ccc(Cc2nccc3cc(OC)c(OC)cc23)cc1OC` [PAPAVERINE]: the “Bacterial Biotransformation” value was “Compound NOT metabolized”.
On the same count and under the same terms, the value for `CN(C)CC(c1ccc(O)cc1)C1(O)CCCCC1.O=C(O)CCC(=O)O` (stereo not drawn) [DESVENLAFAXINE SUCCINATE] was “Compound NOT metabolized”.

A further data set can be described thus: The drug is tested on Clostridium scindens strain: ATCC35704 for biotransformation. The drug concentrations were measured before and after a 12-h incubation by liquid-chromatography-coupled mass spectrometry (LC–MS). Particulars: 2 µM.
For the molecule `Nc1nnc(-c2cccc(Cl)c2Cl)c(N)n1` [LAMOTRIGINE], the “Bacterial Biotransformation” value is listed as “Compound NOT metabolized”.
As to `COc1ccc(Cc2nccc3cc(OC)c(OC)cc23)cc1OC` [PAPAVERINE], the “Bacterial Biotransformation” value is listed as “Compound NOT metabolized”.
As for `CN(C)CC(c1ccc(O)cc1)C1(O)CCCCC1.O=C(O)CCC(=O)O` (stereo not drawn) [DESVENLAFAXINE SUCCINATE], the “Bacterial Biotransformation” value was “Compound NOT metabolized”.

The nature of another data set: The drug is tested on Clostridium sporogenes strain: ATCC15579 for biotransformation. The drug concentrations were measured before and after a 12-h incubation by liquid-chromatography-coupled mass spectrometry (LC–MS). Particulars: 2 µM.
Regarding `COc1ccc(Cc2nccc3cc(OC)c(OC)cc23)cc1OC` [PAPAVERINE], the “Bacterial Biotransformation” value is given as “Compound NOT metabolized”.
The same measure, in the same setting: the value for `CN(C)CC(c1ccc(O)cc1)C1(O)CCCCC1.O=C(O)CCC(=O)O` (stereo not drawn) [DESVENLAFAXINE SUCCINATE] was “Compound NOT metabolized”.

The nature of another data set: The drug is tested on Enterococcus faecalis strain: V583 for biotransformation. The drug concentrations were measured before and after a 12-h incubation by liquid-chromatography-coupled mass spectrometry (LC–MS). Particulars: 2 µM.
`Nc1nnc(-c2cccc(Cl)c2Cl)c(N)n1` [LAMOTRIGINE]: the “Bacterial Biotransformation” value is on record as “Compound NOT metabolized”.
Take `COc1ccc(Cc2nccc3cc(OC)c(OC)cc23)cc1OC` [PAPAVERINE]: the “Bacterial Biotransformation” value is “Compound NOT metabolized”.
For the molecule `CN(C)CC(c1ccc(O)cc1)C1(O)CCCCC1.O=C(O)CCC(=O)O` (stereo not drawn) [DESVENLAFAXINE SUCCINATE], the “Bacterial Biotransformation” value is “Compound NOT metabolized”.

A further data set in a line: The drug is tested on Ruminococcus lactaris strain: ATCC29176 for biotransformation. The drug concentrations were measured before and after a 12-h incubation by liquid-chromatography-coupled mass spectrometry (LC–MS). Particulars: 2 µM.
Consider `Nc1nnc(-c2cccc(Cl)c2Cl)c(N)n1` [LAMOTRIGINE], for which the “Bacterial Biotransformation” value was “Compound NOT metabolized”.
Same read-out and setting: the entry for `COc1ccc(Cc2nccc3cc(OC)c(OC)cc23)cc1OC` [PAPAVERINE] is “Compound NOT metabolized”; for `CN(C)CC(c1ccc(O)cc1)C1(O)CCCCC1.O=C(O)CCC(=O)O` (stereo not drawn) [DESVENLAFAXINE SUCCINATE] it is “Compound NOT metabolized”.

Another data set is described as follows: The drug is tested on Escherichia coli strain: BW25113 for biotransformation. The drug concentrations were measured before and after a 12-h incubation by liquid-chromatography-coupled mass spectrometry (LC–MS). Particulars: 2 µM.
`Nc1nnc(-c2cccc(Cl)c2Cl)c(N)n1` [LAMOTRIGINE]: the “Bacterial Biotransformation” value is reported as “Compound NOT metabolized”.
For `COc1ccc(Cc2nccc3cc(OC)c(OC)cc23)cc1OC` [PAPAVERINE], the “Bacterial Biotransformation” value is “Compound NOT metabolized”.
Same read-out and setting: the value for `CN(C)CC(c1ccc(O)cc1)C1(O)CCCCC1.O=C(O)CCC(=O)O` (stereo not drawn) [DESVENLAFAXINE SUCCINATE] was “Compound NOT metabolized”.

The nature of the next data set: The drug is tested on Providencia rettgeri strain: DSM1131 for biotransformation. The drug concentrations were measured before and after a 12-h incubation by liquid-chromatography-coupled mass spectrometry (LC–MS). It is filed as ADME. Further details: dose 2 uM, timepoint 0 vs 12 hours. Particulars: 2 µM.
Turning to `Nc1nnc(-c2cccc(Cl)c2Cl)c(N)n1` [LAMOTRIGINE], the “Bacterial Biotransformation” value was “Compound NOT metabolized”.
On the same count and under the same terms, the value for `COc1ccc(Cc2nccc3cc(OC)c(OC)cc23)cc1OC` [PAPAVERINE] was “Compound NOT metabolized”; that for `CN1[C@@H]2CC[C@H]1C[C@@H](OC(=O)C(CO)c1ccccc1)C2` (stereo partly drawn) [ATROPINE] was “Compound NOT metabolized”.
For the molecule `CN(C)CC(c1ccc(O)cc1)C1(O)CCCCC1.O=C(O)CCC(=O)O` (stereo not drawn) [DESVENLAFAXINE SUCCINATE], the “Bacterial Biotransformation” value is given as “Compound NOT metabolized”.

The conditions of another data set: bifidobacterium adolescentis, 12 h, 2 µM.
Description: The drug is tested on Bifidobacterium adolescentis strain: ATCC 15703 for biotransformation. The drug concentrations were measured before and after a 12-h incubation by liquid-chromatography-coupled mass spectrometry (LC–MS)
In the case of `Nc1nnc(-c2cccc(Cl)c2Cl)c(N)n1` [LAMOTRIGINE], the “Bacterial Biotransformation” value was “Compound NOT metabolized”.
As for `COc1ccc(Cc2nccc3cc(OC)c(OC)cc23)cc1OC` [PAPAVERINE], the “Bacterial Biotransformation” value is listed as “Compound NOT metabolized”.
As to `CN1[C@@H]2CC[C@H]1C[C@@H](OC(=O)C(CO)c1ccccc1)C2` (stereo partly drawn) [ATROPINE], the “Bacterial Biotransformation” value is “Compound NOT metabolized”.
Same read-out and setting: the entry for `CN(C)CC(c1ccc(O)cc1)C1(O)CCCCC1.O=C(O)CCC(=O)O` (stereo not drawn) [DESVENLAFAXINE SUCCINATE] is “Compound NOT metabolized”.

The conditions of another data set: bacteroides fragilis, 12 h, 2 µM.
Description: The drug is tested on Bacteroides fragilis strain: 3397 (T10) for biotransformation. The drug concentrations were measured before and after a 12-h incubation by liquid-chromatography-coupled mass spectrometry (LC–MS)
Consider `Nc1nnc(-c2cccc(Cl)c2Cl)c(N)n1` [LAMOTRIGINE], for which the “Bacterial Biotransformation” value was “Compound NOT metabolized”.
The same measure, in the same setting: the entry for `COc1ccc(Cc2nccc3cc(OC)c(OC)cc23)cc1OC` [PAPAVERINE] is “Compound NOT metabolized”; for `CN1[C@@H]2CC[C@H]1C[C@@H](OC(=O)C(CO)c1ccccc1)C2` (stereo partly drawn) [ATROPINE] it is “Compound NOT metabolized”.
As for `CN(C)CC(c1ccc(O)cc1)C1(O)CCCCC1.O=C(O)CCC(=O)O` (stereo not drawn) [DESVENLAFAXINE SUCCINATE], the “Bacterial Biotransformation” value is reported as “Compound NOT metabolized”.

The conditions of a further data set: bacteroides thetaiotaomicron, 12 h, 2 µM.
Description: The drug is tested on Bacteroides thetaiotaomicron strain: VPI-5482 for biotransformation. The drug concentrations were measured before and after a 12-h incubation by liquid-chromatography-coupled mass spectrometry (LC–MS)
Regarding `Nc1nnc(-c2cccc(Cl)c2Cl)c(N)n1` [LAMOTRIGINE], the “Bacterial Biotransformation” value is reported as “Compound NOT metabolized”.
Turning to `COc1ccc(Cc2nccc3cc(OC)c(OC)cc23)cc1OC` [PAPAVERINE], the “Bacterial Biotransformation” value was “Compound NOT metabolized”.
Still for that read-out and setting: the entry for `CN(C)CC(c1ccc(O)cc1)C1(O)CCCCC1.O=C(O)CCC(=O)O` (stereo not drawn) [DESVENLAFAXINE SUCCINATE] is “Compound NOT metabolized”.

For the next data set the following is noted: parabacteroides distasonis, 12 h, 2 µM.
Description: The drug is tested on Parabacteroides distasonis strain: ATCC8503 for biotransformation. The drug concentrations were measured before and after a 12-h incubation by liquid-chromatography-coupled mass spectrometry (LC–MS)
In the case of `CN(C)CC(c1ccc(O)cc1)C1(O)CCCCC1.O=C(O)CCC(=O)O` (stereo not drawn) [DESVENLAFAXINE SUCCINATE], the “Bacterial Biotransformation” value is given as “Compound NOT metabolized”.

The conditions of a further data set: segatella copri, 12 h, 2 µM.
Description: The drug is tested on Prevotella copri strain: DSM18205 for biotransformation. The drug concentrations were measured before and after a 12-h incubation by liquid-chromatography-coupled mass spectrometry (LC–MS)
`Nc1nnc(-c2cccc(Cl)c2Cl)c(N)n1` [LAMOTRIGINE]: the “Bacterial Biotransformation” value was “Compound NOT metabolized”.
Consider `COc1ccc(Cc2nccc3cc(OC)c(OC)cc23)cc1OC` [PAPAVERINE], for which the “Bacterial Biotransformation” value is reported as “Compound NOT metabolized”.
Same read-out and setting: the entry for `CN1[C@@H]2CC[C@H]1C[C@@H](OC(=O)C(CO)c1ccccc1)C2` (stereo partly drawn) [ATROPINE] is “Compound NOT metabolized”; for `CN(C)CC(c1ccc(O)cc1)C1(O)CCCCC1.O=C(O)CCC(=O)O` (stereo not drawn) [DESVENLAFAXINE SUCCINATE] it is “Compound NOT metabolized”.

The conditions of another data set: anaerostipes sp., 12 h, 2 µM.
Description: The drug is tested on Anaerostipes sp. strain: fecal isolate for biotransformation. The drug concentrations were measured before and after a 12-h incubation by liquid-chromatography-coupled mass spectrometry (LC–MS)
With `Nc1nnc(-c2cccc(Cl)c2Cl)c(N)n1` [LAMOTRIGINE], the “Bacterial Biotransformation” value is on record as “Compound NOT metabolized”.
For `COc1ccc(Cc2nccc3cc(OC)c(OC)cc23)cc1OC` [PAPAVERINE], the “Bacterial Biotransformation” value is “Compound NOT metabolized”.
Consider `CN(C)CC(c1ccc(O)cc1)C1(O)CCCCC1.O=C(O)CCC(=O)O` (stereo not drawn) [DESVENLAFAXINE SUCCINATE], for which the “Bacterial Biotransformation” value is given as “Compound NOT metabolized”.
